Here are results for twelve compounds from patent US20160213657A1, “PHARMACEUTICAL COMPOSITION FOR TREATMENT AND/OR PREVENTION OF PULMONARY DISEASE” (UBE INDUSTRIES, LTD., priority 2013, published 2016).

In one assay the target is human EP2 receptor (Homo sapiens, UniProt P43116). In words: Measurement of EP2 receptor binding action ([3H]prostaglandin E2 displacement). As to the method:
Measurement of EP2 Receptor Binding Action
The membrane fraction was collected on glass fiber filter paper (GF/B, manufactured by Whatman) using a cell harvester (M30R, manufactured by Brandel), and after washing with a buffer solution (10 mM MES-KOH (pH 6.0), 10 mM MgCl2), radioactivity was measured with a liquid scintillation analyzer (2000CA, manufactured by Packard).
Ki=IC50/(1+([^3H]prostaglandin E2 concentration/Kd))
Furthermore, the dissociation constant (Kd value) was calculated by Scatchard analysis.

Assay [1] concerns LPS-induced TNFα production of human peripheral blood mononuclear cells. In words: Test of inhibition of LPS-induced TNFα production using human peripheral blood mononuclear cells. In kind it is cell-based. The conditions noted are these: read-out: IC50 value (nM) of TNFα production inhibitory action of human PBMC. As to the method:
Test of Inhibition of LPS-Induced TNFα Production Using Human Peripheral Blood Mononuclear Cells
Peripheral blood collected in the presence of heparin from healthy subjects was diluted two-fold with PBS containing 2 (V/V) % FBS. Hemocyte separation solution (Ficoll Paque™, manufactured by GE Healthcare Science) was added to SepMate™-50 (manufactured by […] Technologies Inc.) followed by layering the diluted blood thereon. A peripheral blood mononuclear cell (hereinafter abbreviated as PBMC) layer was recovered by centrifuging for 10 minutes under conditions of 20° C. and 1200×g. The resulting PBMCs were further centrifuged and washed twice followed by suspending in RPMI1640 medium containing 1 (V/V) % FBS for use in the following test.
A test of inhibition of LPS-induced TNFα production was performed by partially modifying the method of Mary et al. (Journal of Pharmacology and Experimental Therapeutics, 284, 420 (1998)). 185 μL of PBMC suspension prepared to a final concentration of 5×10^5 cells/mL was added to a 96-well plate, subsequently 10 μL of RPMI1640 medium, containing 1 (V/V) % DMSO in which a test compound was dissolved, was added to each well (DMSO final concentration: 0.05 (V/V) %). RPMI1640 medium containing 1 (V/V) % DMSO was similarly added to a well to which test compounds had not been added. After incubating for 1 hour in a carbon dioxide gas incubator, 5 μL of RPMI1640 medium containing LPS (L2880-500MG, manufactured by Sigma) was added to each well (LPS final concentration: 100 ng/mL). 5 μL of RPMI1640 medium was added to a non-LPS stimulation well. After culturing for about 18 hours in a carbon dioxide gas incubator, the culture supernatant was recovered. The recovered culture supernatant was stored at −20° C. until measurement of TNFα content.
A sandwich ELISA kit (Quantikine DTA00c, manufactured by R&D Systems) was used to measure TNFα content. The TNFα content of each sample was calculated from a standard curve of E. coli-derived human recombinant TNF provided with the kit. TNFα production inhibition rate at each test compound concentration was calculated based on a value of 100% for the amount of TNFα produced by LPS in the case of only adding DMSO. The concentration of test compound that inhibited TNFα production by 50% was calculated as the IC50 value (nM) from the relationship between concentration of the added test compound and TNFα production inhibition rate of the test compound.

In assay [2] the test system is neutrophil infiltration of the rat lung. In words: Inhibitory effect on neutrophil infiltration of rat lung (LPS intratracheal, BALF). In kind it is in vivo. To be noted: SD rats; approx. 0.1 mg/Kg intratracheally 1 hour prior to LPS; BALF 4 hours after LPS. As to the method: Inhibitory Effect on Neutrophil Infiltration of Rat Lung
A test of inhibition of neutrophil infiltration of the rat lung was performed by partially modifying the method of Spond et al. (Pulmonary Pharmacology and Therapeutics, 14, 157 (2001)). 25 μL (approx. 4 μg/Kg) of physiological saline solution containing LPS (L2880-500MG, manufactured by Sigma) (concentration: 0.04 mg/mL) was administered intratracheally under isoflurane inhalation anesthesia into SD rats fasted for about 16 hours (males, 7-8 weeks old, body weights: 240 g to 270 g (average: approx. 250 g), supplied by Charles River Laboratories, Japan). A Microsprayer™ (IA-1C-M, manufactured by PennCentury) was used for intratracheal administration.
Dosing solutions of the test compounds were prepared by dissolving the test compounds in a 0.1 mol/L or 1 mol/L aqueous sodium hydroxide solution followed by adding medium and neutralizing (final test compound concentration: 1 mg/mL). PBS or phosphate buffer solution (20 mM, pH=7.4) was used for the medium. 25 μL (approx. 0.1 mg/Kg) of the test compound solution prepared in this manner was administered intratracheally in the same manner as LPS administration 1 hour prior to administration of LPS. Medium was administered to a control group. Furthermore, 6 animals were used in the test compound dosing groups and control group, respectively. […]
The number of white blood cells present in the BALF suspension was measured using a multiparameter automated hematology analyzer (KX-21, manufactured by Sysmex). […] Next, after staining the cells using the Diff-Quik staining kit (Cat. No. 16920, manufactured by Sysmex), the number of neutrophils present among 300 white blood cells was measured under a light microscope (BH-2, manufactured by Olympus) followed by calculating the ratio of neutrophils to white blood cells (NR=the number of neutrophils among 300 white blood cells/300). […]
The number of neutrophils present in the BALF cell suspension was measured using a multiparameter automated hematology analyzer (XT-2000iV, manufactured by Sysmex). […]

[3] abbreviates: membrane fraction of HEK293 cells expressing human EP2 receptor, [3H]prostaglandin E2 10 nM, 30° C., 60 minutes, read-out: Ki value (nM) of EP2 receptor binding action.

The structures appear in SMILES notation. Where two headings read alike, the source gives them in different places. A value given as a limit tells only on which side of the number the result lay.

Sequence of human EP2 receptor (P43116 whole entry): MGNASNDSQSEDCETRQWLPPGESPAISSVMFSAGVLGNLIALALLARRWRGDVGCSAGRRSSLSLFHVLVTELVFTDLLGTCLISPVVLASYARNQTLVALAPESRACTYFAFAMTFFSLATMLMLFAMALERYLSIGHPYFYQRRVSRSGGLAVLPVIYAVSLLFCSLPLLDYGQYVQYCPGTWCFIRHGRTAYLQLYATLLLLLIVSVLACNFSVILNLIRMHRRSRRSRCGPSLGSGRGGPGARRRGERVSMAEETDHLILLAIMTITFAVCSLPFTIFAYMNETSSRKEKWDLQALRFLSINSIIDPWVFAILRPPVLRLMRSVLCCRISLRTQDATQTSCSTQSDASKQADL

Usually Ki stands for a dissociation constant, usually derived from enzyme kinetics or from competition with a known ligand. Broadly, the IC50 is the concentration that gives 50% inhibition. Regarding `CCCc1cccc(-c2ccc(CN(Cc3cccc(NCC(=O)O)n3)S(=O)(=O)c3ccccn3)cc2)c1` [Comparative Example 1, {6-[(3′-Propylbiphenyl-4-ylmethyl)(pyridin-2-ylsulfonyl)aminomethyl]pyridin-2-ylamino}acetate, reference compound], at human EP2 receptor (setting [3]), the Ki worked out at 1.1 nM. Moreover, the IC50 in assay [1] (LPS 100 ng/mL, culture about 18 hours, TNFα by ELISA) is over 300 nM.
With `CC=Cc1cccc(-c2ccc(CN(Cc3cccc(NCC(=O)O)n3)S(=O)(=O)c3ccccn3)cc2)c1` [Example 2], the inhibitory constant (Ki) at human EP2 receptor (setting [3]) turned out to be 0.53 nM.
As to `CC#Cc1cccc(-c2ccc(CN(Cc3cccc(NCC(=O)O)n3)S(=O)(=O)c3ccccn3)cc2)c1` [Example 4, (6-{[3′-(1-Propynyl)biphenyl-4-ylmethyl](pyridin-2-ylsulfonyl)aminomethyl}-pyridin-2-ylamino)acetic acid], the Ki on human EP2 receptor (setting [3]) was found to be 0.8 nM. In addition, in assay [2], the “Inhibition rate of pulmonary neutrophil infiltration” value (shortened to “Inhibition rate”) is listed as 71%. The half-inhibitory concentration (IC50) in assay [1] (Homo sapiens, PBMC, 18 h) turned out to be 3.3 nM.
Regarding `CC#Cc1cccc(-c2ccc(CN(Cc3cccc(NCC(=O)O)n3)S(=O)(=O)c3cccnc3)cc2)c1` [Example 6, (6-{[3′-(1-Propynyl)biphenyl-4-ylmethyl](pyridin-3-ylsulfonyl)aminomethyl}-pyridin-2-ylamino)acetic acid], the inhibition constant (Ki) at human EP2 receptor was 0.75 nM. The IC50 in assay [1] (Homo sapiens, PBMC, 18 h) is 9.4 nM.
Taken in the same sequence, the figures for `CCOc1cccc(-c2ccc(CN(Cc3cccc(NCC(=O)O)n3)S(=O)(=O)c3ccccn3)cc2)c1` [Example 7, {6-[(3′-Ethoxybiphenyl-4-ylmethyl)(pyridin-2-ylsulfonyl)aminomethyl]-pyridin-2-ylamino}acetic acid] were 0.61 nM and 20 nM.
At human EP2 receptor, `CCOc1cccc(-c2ccc(CN(Cc3cccc(NCC(=O)O)n3)S(=O)(=O)c3cccnc3)cc2)c1` [Example 9, {6-[(3′-Ethoxybiphenyl-4-ylmethyl)(pyridin-3-ylsulfonyl)aminomethyl]-pyridin-2-ylamino}acetic acid] showed a Ki of 0.8 nM.
In turn, `CCOc1cccc(-c2ccc(CN(Cc3cccc(NCC(=O)O)n3)S(=O)(=O)c3ccccc3)cc2)c1` [Example 10, {6-[(Benzenesulfonyl)(3′-ethoxybiphenyl-4-ylmethyl)aminomethyl]pyridin-2-ylamino}acetic acid] had a Ki on human EP2 receptor of 0.97 nM. In assay [1] (Homo sapiens, PBMC, 18 h), the IC50 was determined as 18 nM.
On to `CCOc1cccc(-c2ccc(CN(Cc3cccc(NCC(=O)O)n3)S(=O)(=O)c3cccs3)cc2)c1` [Example 11, {6-[(3′-Ethoxybiphenyl-4-ylmethyl)(thiophen-2-ylsulfonyl)aminomethyl]-pyridin-2-ylamino}acetic acid], for which the half-maximal inhibitory concentration (IC50) in assay [1] (Homo sapiens, PBMC, 18 h) was 23 nM.
Still for that read-out and setting: with `CCOc1cccc(-c2ccc(CN(Cc3cccc(NCC(=O)O)n3)S(=O)(=O)c3ccccn3)cc2)n1` [Example 12, (6-{[4-(6-Ethoxypyridin-2-yl)benzyl](pyridin-2-ylsulfonyl)aminomethyl}-pyridin-2-ylamino)acetic acid] the figure was 16 nM.
Turning to `CC#Cc1cccc(-c2ccc(CN(Cc3cccc(NCC(=O)O)n3)S(=O)(=O)c3cccs3)cc2)c1` [Example 14, (6-{[3′-(1-Propynyl)biphenyl-4-ylmethyl](thiophen-2-ylsulfonyl)-aminomethyl}pyridin-2-ylamino)acetic acid], the Ki at human EP2 receptor (setting [3]) amounted to 0.9 nM. In addition, in assay [2], the “Inhibition rate” value is on record as 65%. For the same compound, the concentration for half-maximal inhibition (IC50) in assay [1] (Homo sapiens, PBMC, 18 h) was 13 nM.
On human EP2 receptor, `CC#Cc1cccc(-c2ccc(CN(Cc3cccc(NCC(=O)O)n3)S(=O)(=O)c3ccccc3)cc2)c1` [Example 16, (6-{(Benzenesulfonyl)[3′-(1-propynyl)biphenyl-4-ylmethyl]aminomethyl}-pyridin-2-ylamino)acetic acid] gave an inhibition constant (Ki) of 0.95 nM. Also, in assay [2], the “Inhibition rate” value stood at 66%. Also, the half-maximal inhibitory concentration (IC50) in assay [1] (Homo sapiens, PBMC, 18 h) was 15 nM.
Turning to `CC#Cc1cccc(-c2ccc(CN(Cc3cccc(NCC(=O)O)n3)S(=O)(=O)c3ccsc3)cc2)c1` [Example 18, (6-{[3′-(1-Propynyl)biphenyl-4-ylmethyl](thiophen-3-ylsulfonyl)-aminomethyl}pyridin-2-ylamino)acetic acid], on human EP2 receptor (setting [3]), the Ki is 0.99 nM. Further, the IC50 in assay [1] (Homo sapiens, PBMC, 18 h) stood at 3.2 nM.
